# Test results reported in patent publication US6369225B1, “Compounds having activity as inhibitors of cytochrome P450RAI” (Allergan Sales, Inc., priority 2000, dated 2002).
# Experiments:
# [1] = system: skin of hairless mice; experiment: topical skin irritation test in hairless mice; type: in vivo, mouse; conditions: topical in acetone, once daily days 1 through 5, mean ±SD, range 0-21
# Text: Mice were housed individually throughout the dosing period.
# Doses are disclosed as nmol/25 g.
# The grading scale used is as follows:
# Values can range from 0-9.
# Values can range from 0-8.
# [2] = biological target: T1, P450RAI-1 (Homo sapiens, UniProt O43174); experiment: P450RAI-1 cell-based inhibitor assay; conditions: P450RAI-1 stably transfected HeLa cells, [3H]-RA metabolism, 3 hours at 37° C.; read-out: P450RAI INHIBITION DATA INTACT HELA IC50
# T1 construct: expressed in transfected cells; host or cells: HeLa cells, stably transfected, hygromycin selection
# T1 sequence (O43174 1-497): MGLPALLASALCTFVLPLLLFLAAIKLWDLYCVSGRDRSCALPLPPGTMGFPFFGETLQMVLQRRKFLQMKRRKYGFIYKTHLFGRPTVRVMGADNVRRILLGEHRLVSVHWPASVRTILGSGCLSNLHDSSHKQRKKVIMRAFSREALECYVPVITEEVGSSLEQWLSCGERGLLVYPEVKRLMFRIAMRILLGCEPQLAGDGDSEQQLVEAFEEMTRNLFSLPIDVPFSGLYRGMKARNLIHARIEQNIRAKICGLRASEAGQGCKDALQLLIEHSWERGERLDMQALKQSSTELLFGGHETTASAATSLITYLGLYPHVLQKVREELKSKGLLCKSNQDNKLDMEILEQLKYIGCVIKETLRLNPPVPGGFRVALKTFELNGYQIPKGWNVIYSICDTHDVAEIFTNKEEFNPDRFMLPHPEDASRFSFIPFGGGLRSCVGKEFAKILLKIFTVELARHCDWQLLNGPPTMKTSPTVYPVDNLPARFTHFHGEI
# Description: P450RAI-1 stably transfected HeLa cells are maintained in […] tissue culture dishes in Modified Eagle's Medium (MEM) containing 10% Fetal Bovine Serum (FBS) and 100 μg/ml hygromycin. Exponentially growing cells are harvested by incubating in trypsin. Cells are then washed with 1× Phosphate Buffered Saline (PBS) and plated in a 48-well plate at 5×10^5 cells in 0.2 ml MEM medium containing 10% FBS and 0.05 μCi[^3H]-RA in the presence or absence of increasing concentrations of the test compounds. The compounds are diluted in 100% DMSO and then added in triplicate wells at either 10, 1 or 0.1 μM final concentration. As a positive control for RA metabolism inhibition, cells are also incubated with ketoconazole at 100, 10 and 1 μM. Cell are incubated for 3 hours at 37° C. […] The water soluble radioactivity is quantified using a β-scintillation counter. IC50 values represent the concentration of inhibitor required to inhibit all-trans-RA metabolism by 50 percent and are derived manually from log-transformed data.
# [3] = biological target: T2, RARβ (Homo sapiens, UniProt P10826); experiment: ligand binding assay, RARβ; conditions: Kd line of EC50/(EFFICACY)/Kd, read-out: RAR Kd β
# T2 sequence (P10826 1-455): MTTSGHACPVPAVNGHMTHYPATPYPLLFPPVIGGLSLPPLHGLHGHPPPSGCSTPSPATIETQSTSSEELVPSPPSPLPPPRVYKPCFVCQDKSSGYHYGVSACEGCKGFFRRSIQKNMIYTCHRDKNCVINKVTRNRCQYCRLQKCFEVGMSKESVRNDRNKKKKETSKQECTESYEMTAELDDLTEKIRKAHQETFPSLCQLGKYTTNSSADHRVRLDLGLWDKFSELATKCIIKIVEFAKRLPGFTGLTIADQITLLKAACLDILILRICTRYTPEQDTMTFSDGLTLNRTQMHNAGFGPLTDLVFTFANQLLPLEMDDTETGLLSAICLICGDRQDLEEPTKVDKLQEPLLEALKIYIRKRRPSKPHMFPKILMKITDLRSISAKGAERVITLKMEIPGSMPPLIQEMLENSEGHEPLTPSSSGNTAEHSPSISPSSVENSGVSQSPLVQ
# Text: (§1) Assays described below measure the ability of a compound to bind to, and/or activate various retinoid receptor subtypes. When in these assays a compound binds to a given receptor subtype and activates the transcription of a reporter gene through that subtype, then the compound is considered an agonist of that receptor subtype. […] In the below described assays the ability of the compounds to bind to RARα, RARβ, RARγ, RXRα, RXRβ and RXRγ receptors, and the ability or inability of the compounds to activate transcription of a reporter gene through these receptor subtypes can be tested.
# A holoreceptor transactivation assay and a ligand binding assay which measure the antagonist/agonist like activity of the compounds of the invention, or their ability to bind to the several retinoid receptor subtypes, respectively, are described in published PCT Application No. WO WO93/11755 (particularly on pages 30-33 and 37-41) published on Jun. 24, 1993, the specification of which is also incorporated herein by reference. […] The results obtained in this assay are expressed in EC50 numbers, as they are also in the chimeric receptor transactivation assay. The results of ligand binding assay are expressed in Kd numbers. (See Cheng et al. Biochemical Pharmacology Vol. 22 pp 3099-3108, expressly incorporated herein by reference.)
# [4] = biological target: T3, RARγ (Homo sapiens, UniProt P13631); experiment: ligand binding assay, RARγ; conditions: Kd line of EC50/(EFFICACY)/Kd, read-out: RAR Kd γ
# T3 sequence (P13631 1-454): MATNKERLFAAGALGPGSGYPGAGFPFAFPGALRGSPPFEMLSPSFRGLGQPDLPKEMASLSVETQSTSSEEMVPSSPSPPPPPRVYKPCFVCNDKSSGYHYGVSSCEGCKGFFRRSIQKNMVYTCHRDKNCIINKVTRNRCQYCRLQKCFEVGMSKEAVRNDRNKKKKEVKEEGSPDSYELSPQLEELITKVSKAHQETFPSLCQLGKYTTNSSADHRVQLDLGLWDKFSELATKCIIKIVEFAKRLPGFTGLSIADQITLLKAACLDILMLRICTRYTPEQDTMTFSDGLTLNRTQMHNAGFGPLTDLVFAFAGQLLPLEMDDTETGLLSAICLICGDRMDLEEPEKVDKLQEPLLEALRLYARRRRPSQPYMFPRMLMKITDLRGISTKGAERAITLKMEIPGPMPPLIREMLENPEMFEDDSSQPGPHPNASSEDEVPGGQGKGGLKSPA
# Text: as §1
# (§2) A holoreceptor transactivation assay and a ligand binding assay which measure the antagonist/agonist like activity of the compounds of the invention, or their ability to bind to the several retinoid receptor subtypes, respectively, are described in published PCT Application No. WO WO93/11755 (particularly on pages 30-33 and 37-41) published on Jun. 24, 1993, the specification of which is also incorporated herein by reference. A detailed experimental procedure for holoreceptor transactivations has been described by Heyman et al. Cell 68, 397-406, (1992); Allegretto et al. J. Biol. Chem. 268, 26625-26633, and Mangelsdorf et al. The Retinoids: Biology, Chemistry and Medicine, pp 319-349, Raven Press Ltd., New York, which are expressly incorporated herein by reference. The results obtained in this assay are expressed in EC50 numbers, as they are also in the chimeric receptor transactivation assay. The results of ligand binding assay are expressed in Kd numbers. (See Cheng et al. Biochemical Pharmacology Vol. 22 pp 3099-3108, expressly incorporated herein by reference.)
# (§3) The results if the ligand binding assay for several preferred compounds of the invention are included in Table 1.
# [5] = biological target: T4, RARα (Homo sapiens, UniProt P10276); experiment: ligand binding assay, RARα; conditions: Kd line of EC50/(EFFICACY)/Kd, read-out: RAR Kd α
# T4 sequence (P10276 1-462): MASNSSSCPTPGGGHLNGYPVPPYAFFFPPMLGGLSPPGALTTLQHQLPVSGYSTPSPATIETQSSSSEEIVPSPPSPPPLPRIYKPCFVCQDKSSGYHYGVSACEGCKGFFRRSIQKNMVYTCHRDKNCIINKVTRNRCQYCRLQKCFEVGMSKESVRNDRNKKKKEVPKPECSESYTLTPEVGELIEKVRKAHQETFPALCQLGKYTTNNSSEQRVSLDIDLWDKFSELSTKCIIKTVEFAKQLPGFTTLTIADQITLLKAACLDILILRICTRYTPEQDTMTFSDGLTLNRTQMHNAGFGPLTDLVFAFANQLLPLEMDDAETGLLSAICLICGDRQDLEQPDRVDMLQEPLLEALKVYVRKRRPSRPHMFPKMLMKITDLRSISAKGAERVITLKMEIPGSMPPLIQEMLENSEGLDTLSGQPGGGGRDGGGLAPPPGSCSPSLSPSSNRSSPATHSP
# Text: as §1, §2, §3
Compound,Cutaneous Toxicity Score (Blackjack Score) ([1]; 100 nmole (nmol/25 g)),Cutaneous Toxicity Score (Blackjack Score) ([1]; 1000 nmole (nmol/25 g)),IC50 [2],Cutaneous Toxicity Score (Blackjack Score) ([1]; 300 nmole (nmol/25 g)),Kd [3],Kd [4],Kd [5]
"CC1(C)CCC(=O)c2ccc(C#Cc3ccc(CC(=O)O)c(F)c3)cc21 [Compound 15, [2-Fluoro-4-(8,8-dimethyl-5-oxo-5,6,7,8-tetrahydro-naphthalene-2-yl-ethynyl)phenyl]-acetic Acid]",1 ± 1,5 ± 2,,,,,
"CN(C1CC1)C1CCC(C)(C)c2cc(C#Cc3ccc(CC(=O)O)c(F)c3)ccc21 (centres unmarked) [Compound 18, [4-(5-(Cyclopropyl-methyl-amino)-8,8-dimethyl-5,6,7,8-tetrahydro-naphthalene-2-yl-ethynyl)-2-fluoro-phenyl]-acetic Acid]",0 ± 0,10 ± 2,1.1 µM,5 ± 2,,,
"CC1(C)CC(C)(C)c2cc(C#Cc3ccc(CC(=O)O)c(F)c3)ccc2O1 [Compound 32, [2-Fluoro-4-(2,2,4,4-tetramethyl-chroman-6-yl-ethynyl)phenyl]acetic Acid]",,,0.18 µM,,4.22 µM,13 µM,27 µM
"CC1(C)CC(C)(C)c2cc(C#Cc3ccc(C(=O)O)cc3)cc(C3CC3)c2O1 [Compound 34, 4-(8-Cyclopropyl-2,2,4,4-tetramethyl-chroman-6-yl-ethynyl)-benzoic Acid]",,,0.13 µM,,0.015 µM,0.0025 µM,0.0615 µM
"CC1(C)CC2(CC2)Oc2ccc(C#Cc3ccc(CC(=O)O)cc3)cc21 [Compound 42, Benzeneacetic Acid, 4-[(3,4-dihydro-4,4-dimethylspiro[2H-1-benzopyran-2,1′-cyclopropane]-6-yl)ethynyl]-]",,,0.19 µM,,3.64 µM,> 10 µM,15 µM
"COC1(c2ccc(C#Cc3ccc(CC(=O)O)cc3)cc2)CC1 [Compound 70, {4-[4-(1-Methoxycyclopropyl)-phenylethynyl]-phenyl}-acetic Acid]",,,> 10 µM,,> 10 µM,> 10 µM,> 10 µM
"CC(C)OC1(c2ccc(C#Cc3ccc(CC(=O)O)cc3)cc2)CC1 [Compound 74, {4-[4-(1-Isopropoxycyclopropyl)-phenylethynyl]-phenyl}-acetic Acid]",,,3.5 µM,,14 µM,> 10 µM,11 µM
"O=C(O)c1ccc(C#Cc2ccc(C3(OCc4ccccc4)CC3)cc2)cc1 [Compound 77, 4-[4-(1-Benzyloxycyclopropyl)-phenylethynyl]-benzoic Acid]",,,> 10 µM,,0.225 µM,0.016 µM,2.21 µM
"O=C(O)Cc1ccc(C#Cc2ccc(C3(OCc4ccccc4)CC3)cc2)cc1 [Compound 78, {4-[4-(1-Benzyloxycyclopropyl)-phenylethynyl]-phenyl}-acetic Acid]",,,> 10 µM,,> 10 µM,> 10 µM,> 10 µM
"Cc1cc(C#Cc2ccc(CC(=O)O)cc2)ccc1C1(OCc2ccccc2)CC1 [Compound 82, {4-[4-(1-Benzyloxycyclopropyl)-3-methyl-phenylethynyl]-phenyl}-acetic Acid]",,,> 10 µM,,> 10 µM,> 10 µM,> 10 µM
"Cc1cc(C#Cc2ccc(CC(=O)O)cc2)ccc1C1(OC(C)C)CC1 [Compound 86, {4-[4-(1-Isopropoxycyclopropyl)-3-methyl-phenylethynyl]-phenyl}-acetic Acid]",,,1.4 µM,,> 10 µM,> 10 µM,> 10 µM
"Cc1cc(C#Cc2ccc(CC(=O)O)cc2)ccc1C1(OCC(C)(C)C)CC1 [Compound 90, {4-[4-[1-(2,2-Dimethylpropyloxy)-cyclopropyl]-3-methyl-phenylethynyl]-phenyl}-acetic Acid]",,,0.95 µM,,> 10 µM,> 10 µM,> 10 µM
"CCc1cc(C#Cc2ccc(CC(=O)O)cc2)ccc1C1(OCc2ccccc2)CC1 [Compound 94, {4-[4-(1-Benzyloxycyclopropyl)-3-ethyl-phenylethynyl]-phenyl}-acetic Acid]",,,> 10 µM,,> 10 µM,> 10 µM,> 10 µM
